Test results from ChEMBL document CHEMBL6109117, “Synthesis of an RBM39 Degrader That Downregulates CEP192 and Induces Disorganized Spindle Structures” (J Med Chem, 2025).
Calls of active or inactive are those of the source. The rule behind the calls is not given here.

Key:
HCT-116 [1] = test: Induction of RBM39 degradation in human HCT-116 cells at 0.1 to 1 uM incubated for 24 hrs by Western blot analysis; format: cell-based; conditions: dose 0.1-1 µM
HCT-116 [2] = test: Induction of RBM39 degradation in human HCT-116 cells assessed as fold change at 0.1 uM incubated for 24 hrs by Western blot analysis relative to control; format: cell-based
HCT-116 [3] = test: Induction of RBM39 degradation in human HCT-116 cells assessed as fold change at 1 uM incubated for 24 hrs by Western blot analysis relative to control; format: cell-based
HCT-116 [4] = test: Antiproliferative activity against human HCT-116 cells incubated for 4 days by CCK8 assay; format: functional, cell-based; conditions: HCT-116, 96 h
[5] = Inhibition of N-terminal His-tagged RBM39 (146 to 326 residues)/DCAF15 (2 to 600 residues)/full-length DDB1 (1 to 1140 residues)(unknown origin) incubated for 1 hr by fluorescence polarization assay; design: species or system Homo sapiens
[6] = Inhibition of DCAF15 (2 to 600 residues)/full-length DDB1 (1 to 1140 residues)(unknown origin) incubated for 1 hr by fluorescence polarization assay; design: species or system Homo sapiens
[7] = Competitive inhibition of N-terminal His-tagged RBM39 (146 to 326 residues)/DCAF15 (2 to 600 residues)/full-length DDB1 (1 to 1140 residues)(unknown origin) incubated for 1 hr in presence of (R)-N-(3-(N-(3-Cyano-4-methyl-1H-indol-7-yl)sulfamoyl)phenyl)-2-(2-(((6-(3-(3',6'-dihydroxy-3-oxo-3H-spiro[isobenzofuran-1,9'-xanthen]-5-yl)thioureido)hexyl)amino)methyl)pyrrolidin-1-yl)-2-oxoacetamide by fluorescence polarization assay; design: species or system Homo sapiens

| Structure (SMILES) | IC50 (HCT-116 [4]) [nM] | Activity (HCT-116 [1]) | fold change (FC) (HCT-116 [2]) | fold change (FC) (HCT-116 [3]) | further results |
| --- | --- | --- | --- | --- | --- |
| Cc1ccc(NS(=O)(=O)c2cccc(NC(=O)C(=O)NCCCCCN(C)C)c2)c2[nH]cc(C#N)c12 | 398 |  |  |  |  |
| Cc1ccc(NS(=O)(=O)c2cccc(NC(=O)C(=O)NCCN)c2)c2[nH]cc(C#N)c12 | 2900 |  |  |  |  |
| Cc1ccc(NS(=O)(=O)c2cccc(NC(=O)C(=O)NCCCCN)c2)c2[nH]cc(C#N)c12 | 1000 |  |  |  |  |
| Cc1ccc(NS(=O)(=O)c2cccc(NC(=O)C(=O)NCCCN)c2)c2[nH]cc(C#N)c12 | 1500 |  |  |  |  |
| COC[C@H]1CCCN1C(=O)C(=O)Nc1cccc(S(=O)(=O)Nc2ccc(C)c3c(C#N)c[nH]c23)c1 | 729 |  |  |  |  |
| COC[C@@H]1CCCN1C(=O)C(=O)Nc1cccc(S(=O)(=O)Nc2ccc(C)c3c(C#N)c[nH]c23)c1 | 696 |  |  |  |  |
| Cc1ccc(NS(=O)(=O)c2cccc(NC(=O)C(=O)N3CCC[C@@H]3CNCCCCCCNC(=S)Nc3ccc4c(c3)C(=O)OC43c4ccc(O)cc4Oc4cc(O)ccc43)c2)c2[nH]cc(C#N)c12 |  |  |  |  | IC50 [5]: 208 nM; IC50 [6]: > 2000 nM |
| Cc1ccc(NS(=O)(=O)c2cccc(NC(=O)C(=O)NCCCCCCN)c2)c2[nH]cc(C#N)c12 | 150 |  |  |  |  |
| Cc1ccc(NS(=O)(=O)c2cccc(NC(=O)C(=O)NCCCCCCN(C)C)c2)c2[nH]cc(C#N)c12 | 776 |  |  |  |  |
| Cc1ccc(NS(=O)(=O)c2cccc(NC(=O)C(=O)NCCCCCCCN)c2)c2[nH]cc(C#N)c12 | 927 |  |  |  |  |

More lines, in order of falling IC50 (HCT-116 [4]), values ahead:

| IC50 (HCT-116 [4]) [nM] | Structure (SMILES) | Activity (HCT-116 [1]) | fold change (FC) (HCT-116 [2]) | fold change (FC) (HCT-116 [3]) | further results |
| --- | --- | --- | --- | --- | --- |
| 90.5 | Cc1ccc(NS(=O)(=O)c2cccc(NC(=O)C(=O)N3CCC[C@H]3CN)c2)c2[nH]cc(C#N)c12 | Active | 0.55 | 0.18 |  |
| 70.3 | Cc1ccc(NS(=O)(=O)c2cccc(NC(=O)C(=O)N3CCCC[C@H]3CO)c2)c2[nH]cc(C#N)c12 | Active | 0.59 | 0.21 |  |
| 67.8 | Cc1ccc(NS(=O)(=O)c2cccc(NC(=O)C(=O)NCCCCCN)c2)c2[nH]cc(C#N)c12 | Active | 0.8 | 0.3 | IC50 [7]: 301 nM |
| 58 | Cc1ccc(NS(=O)(=O)c2cccc(NC(=O)C(=O)N3CCCC[C@@H]3CO)c2)c2[nH]cc(C#N)c12 | Active | 0.66 | 0.17 |  |
| 52.3 | Cc1ccc(NS(=O)(=O)c2cccc(NC(=O)C(=O)N3CCC[C@@H]3CN)c2)c2[nH]cc(C#N)c12 | Active | 0.52 | 0.22 |  |
| 50.3 | Cc1ccc(NS(=O)(=O)c2cccc(NC(=O)C(=O)N3CCC[C@H]3CO)c2)c2[nH]cc(C#N)c12 | Active | 0.49 | 0.32 |  |
